Source: patent US5061711A, “Method of curing liver diseases by using pyrrolo quinoline quinone triesters and novel pyrrolo quinoline quinone triesters” (Mitsubishi Gas Chemical Company, Inc., priority 1989, dated 1991)

Columns and labels:
[1] = system: mice; experiment: Kidney toxicity determined by urine test; type: in vivo, mouse
Method: (2) Kidney toxicity determined by urine test
PQQ.2Na, PQQ trimethyl ester and PQQ triallyl ester were intraperitoneally administered to mice and they were bred in the same manner as in the above acute toxicity test. The doses per kg of body weight of mouse were 20, 40 and 80 mg for PQQ.2Na and 20, 40, 80, 160 and 200 mg for PQQ triesters. Urine was collected every day and glucose concentration was examined using clinical examination reagent (trademark: […] II manufactured by Miles.Sankyo Co.).

[2] = system: mice; experiment: Kidney toxicity determined by blood examination; type: in vivo, mouse; settings: for Creatinine in serum / Urea nitrogen in serum / Glucose in serum: average of eight mice; for Creatinine in serum: None: 0.4; for Urea nitrogen in serum: None: 20; for Glucose in serum: None: 78
Method: (3) Kidney toxicity determined by blood examination:
After lapse of one day from the administration, the mice were fasted (only water was given) and then after 18 hours, blood was collected and serum was obtained therefrom. Glucose, urea nitrogen and creatinine in the serum were examined by clinical examination reagent (trademark: FUJI DRYCHEMSLIDE manufactured by Fuji Photo Film Co., Ltd.). The results are shown by average value of eight mice in Table 3.

[3] = system: D-galactosamine-induced liver diseases; experiment: Pharmacological effect (2) on D-galactosamine-induced liver diseases; type: in vivo, SD rats; settings: D-galactosamine 1 g/kg rat i.p., 23 hours, average of five rats; for Total bilirubin in serum: D-galactosamine alone 1.4; for GPT in serum: D-galactosamine alone 1560; for GOT in serum: D-galactosamine alone 2542
Method: Pharmacological effect (2) of PQQ triesters on D-galactosamine-induced liver diseases:
Forty SD rats (male, 7 weeks old, body weight: about 260 g; supplied by Japan Charles River Co.) were divided to eight groups (A-H) each consisting of five rats. All rats were fasted for 18 hours and 1.3 ml of a solution containing 1 mg/ml of PQQ trimethyl ester was orally administered to the rats of group C, 1.3 ml of a solution containing 2 mg/ml of PQQ trimethyl ester was orally administered to the rats of group D, 1.3 ml of a solution containing 3 mg/ml of PQQ trimethyl ester was orally administered to the rats of group E, 1.3 ml of a solution containing 1 mg/ml of PQQ triallyl ester was orally administered to the rats of group F, 1.3 ml of a solution containing 2 mg/ml of PQQ triallyl ester was orally administered to the rats of group G, and 1.3 ml of a solution containing 3 mg/ml of PQQ triallyl ester was orally administered to the rats of group H and furthermore, after lapse of 40 minutes, the same PQQ triesters in the same doses as above were orally administered to respective rats. In these cases, the PQQ triesters were suspended in physiological saline containing 1% Tween 80 and administered to the rats. 1.3 ml of physiological saline was orally administered to the rats of group B in place of PQQ triesters. Furthermore, after lapse of 20 minutes, 1.3 ml of a solution of d-galactosamine in 10 ml of physiological saline was intraperitoneally administered to the rats of groups B-H. Neither PQQ triesters nor D-galactosamine were administered to the rats of group A.
After 23 hours from administration of D-galactosamine, blood was collected from abdominal main artery and serum was obtained by centrifugation therefrom.
GPT, GOT and amount of total bilirubin in the serum were measured by clinical examination reagent (trademark: FUJI DRYCHEMSLIDE manufactured by Fuji Photo Film Co., Ltd.). The results are shown in Table 8 by average value of five rats.

[4] = Solubility; type: physicochemical

C=CCOC(=O)c1cc(C(=O)OCC=C)c2c(n1)C(=O)C(=O)c1cc(C(=O)OCC=C)[nH]c1-2 [PQQ triallyl ester]
1742 U/l: GOT in serum ([3]; oral 15 mg/kg rat twice)
64 mg/dL: Glucose in serum ([2]; i.p. 200 mg/kg)
1.1 mg/dL: Total bilirubin in serum ([3]; oral 5 mg/kg rat twice)
1.0 mg/dL: Total bilirubin in serum ([3]; oral 15 mg/kg rat twice)
hardly soluble: Solubility ([4]; water)
0.9 mg/dL: Total bilirubin in serum ([3]; oral 10 mg/kg rat twice)
0.1 mg/dL: Creatinine in serum ([2]; i.p. 200 mg/kg)
12 mg/dL: Urea nitrogen in serum ([2]; i.p. 40 mg/kg) | Urea nitrogen in serum ([2]; i.p. 80 mg/kg)
1409 U/l: GOT in serum ([3]; oral 5 mg/kg rat twice)
no glucose was detected: glucose in urine (in words) ([1]; i.p., all doses)
570 U/l: GPT in serum ([3]; oral 10 mg/kg rat twice)
47 mg/dL: Glucose in serum ([2]; i.p. 80 mg/kg)
10 mg/dL: Urea nitrogen in serum ([2]; i.p. 160 mg/kg)
Very soluble: Solubility ([4]; acetone) | Solubility ([4]; ethanol) | Solubility ([4]; methanol)
619 U/l: GPT in serum ([3]; oral 5 mg/kg rat twice)
593 U/l: GPT in serum ([3]; oral 15 mg/kg rat twice)
0.3 mg/dL: Creatinine in serum ([2]; i.p. 40 mg/kg)
nearly the same: creatinine in serum (in words) ([2]; i.p., versus no compound) | glucose in serum (in words) ([2]; i.p., versus no compound) | urea nitrogen in serum (in words) ([2]; i.p., versus no compound)
9 mg/dL: Urea nitrogen in serum ([2]; i.p. 200 mg/kg)
42 mg/dL: Glucose in serum ([2]; i.p. 40 mg/kg)
0.2 mg/dL: Creatinine in serum ([2]; i.p. 80 mg/kg) | Creatinine in serum ([2]; i.p. 160 mg/kg)
1184 U/l: GOT in serum ([3]; oral 10 mg/kg rat twice)
59 mg/dL: Glucose in serum ([2]; i.p. 160 mg/kg)
no kidney toxicity was observed: kidney toxicity (in words) ([2]; mouse, in vivo, ip)
-: glucose in urine ([1]; i.p. 20 mg/kg, day 1) | glucose in urine ([1]; i.p. 20 mg/kg, day 2) | glucose in urine ([1]; i.p. 20 mg/kg, day 3) | glucose in urine ([1]; i.p. 20 mg/kg, day 6) | glucose in urine ([1]; i.p. 20 mg/kg, day 7) | glucose in urine ([1]; i.p. 20 mg/kg, day 8) | glucose in urine ([1]; i.p. 20 mg/kg, day 10) | glucose in urine ([1]; i.p. 20 mg/kg, day 13) | glucose in urine ([1]; i.p. 20 mg/kg, day 14) | glucose in urine ([1]; i.p. 40 mg/kg, day 1) | glucose in urine ([1]; i.p. 40 mg/kg, day 2) | glucose in urine ([1]; i.p. 40 mg/kg, day 3) | glucose in urine ([1]; i.p. 40 mg/kg, day 6) | glucose in urine ([1]; i.p. 40 mg/kg, day 7) | glucose in urine ([1]; i.p. 40 mg/kg, day 8) | glucose in urine ([1]; i.p. 40 mg/kg, day 10) | glucose in urine ([1]; i.p. 40 mg/kg, day 13) | glucose in urine ([1]; i.p. 40 mg/kg, day 14) | glucose in urine ([1]; i.p. 80 mg/kg, day 1) | glucose in urine ([1]; i.p. 80 mg/kg, day 2) | glucose in urine ([1]; i.p. 80 mg/kg, day 3) | glucose in urine ([1]; i.p. 80 mg/kg, day 6) | glucose in urine ([1]; i.p. 80 mg/kg, day 7) | glucose in urine ([1]; i.p. 80 mg/kg, day 8) | glucose in urine ([1]; i.p. 80 mg/kg, day 10) | glucose in urine ([1]; i.p. 80 mg/kg, day 13) | glucose in urine ([1]; i.p. 80 mg/kg, day 14) | glucose in urine ([1]; i.p. 160 mg/kg, day 1) | glucose in urine ([1]; i.p. 160 mg/kg, day 2) | glucose in urine ([1]; i.p. 160 mg/kg, day 3) | glucose in urine ([1]; i.p. 160 mg/kg, day 6) | glucose in urine ([1]; i.p. 160 mg/kg, day 7) | glucose in urine ([1]; i.p. 160 mg/kg, day 8) | glucose in urine ([1]; i.p. 160 mg/kg, day 10) | glucose in urine ([1]; i.p. 160 mg/kg, day 13) | glucose in urine ([1]; i.p. 160 mg/kg, day 14) | glucose in urine ([1]; i.p. 200 mg/kg, day 1) | glucose in urine ([1]; i.p. 200 mg/kg, day 2) | glucose in urine ([1]; i.p. 200 mg/kg, day 3) | glucose in urine ([1]; i.p. 200 mg/kg, day 6) | glucose in urine ([1]; i.p. 200 mg/kg, day 7) | glucose in urine ([1]; i.p. 200 mg/kg, day 8) | glucose in urine ([1]; i.p. 200 mg/kg, day 10) | glucose in urine ([1]; i.p. 200 mg/kg, day 13) | glucose in urine ([1]; i.p. 200 mg/kg, day 14)
